Experimental findings from ChEMBL document CHEMBL5113383, “Application of the All-Hydrocarbon Stapling Technique in the Design of Membrane-Active Peptides” (J Med Chem, 2022) are described below.

One data set has as its system Candida parapsilosis. Put plainly: Antimicrobial activity against Candida parapsilosis ATCC 22010. Format: functional. To be noted: Lodderomyces parapsilosis.
For another data set, the system named is Pichia kudriavzevii. The experiment in a line: Antimicrobial activity against Candida krusei ATCC 2340. Format: functional.
Data set [1] deals with [Candida] auris. The experiment in a line: Antimicrobial activity against Candida auris 918. To be noted: Candidozyma auris. In kind it is functional.
Data set [2] deals with Candida tropicalis. Put plainly: Antimicrobial activity against Candida tropicalis ATCC 20026. In kind it is functional.
For data set [3], the system named is Nakaseomyces glabratus. Put plainly: Antimicrobial activity against Candida glabrata 896. In kind it is functional.
Data set [4] deals with Candida albicans. The experiment in a line: Antimicrobial activity against Candida albicans SC5314. In kind it is functional.
Data set [5] relates to Candida albicans. Put plainly: Antimicrobial activity against Candida albicans 901. In kind it is functional.
For data set [6], the system named is Candida tropicalis. Put plainly: Antimicrobial activity against Candida tropicalis 895. Format: functional.
Data set [7] deals with [Candida] auris. Put plainly: Antimicrobial activity against Candida auris 919. In kind it is functional. The note with it: Candidozyma auris.
Data set [8] deals with Nakaseomyces glabratus. Put plainly: Antimicrobial activity against Candida glabrata ATCC 1182. In kind it is functional.
The test system of data set [9] is Candida albicans. The experiment in a line: Antimicrobial activity against Candida albicans 904. In kind it is functional.
Data set [10] can be described thus: Hemolytic activity in human erythrocytes incubated for 30 mins. In kind it is toxicity, cell-based, Erythrocyte.

Positions of bridges follow the written chain, without caps; N, C: chain ends. Non-standard residues stand in square brackets, D forms with d. Residues, ends and D or L forms follow the SMILES beside them. S5 = C=CCCC[C@](C)(N)C(=O)O

Turning to `CC[C@H](C)[C@@H]1NC(=O)[C@H](CCCCN)NC(=O)[C@@](C)(NC(=O)[C@@H](NC(=O)[C@@H](NC(=O)[C@H](CC(=O)O)NC(=O)[C@H](Cc2ccccc2)NC(=O)[C@H](CC(C)C)NC(=O)CN)[C@@H](C)CC)[C@@H](C)CC)CCC/C=C\CCC[C@@](C)(C(=O)N[C@@H](CO)C(=O)N[C@@H](Cc2ccccc2)C(N)=O)NC(=O)[C@H](C)NC1=O` (H-GLFDII[S5]KIA[S5]SF-NH2; staple (Z) 7-11), the MIC was greater than 128 mg/L in the data set on Candida parapsilosis; greater than 128 mg/L against Pichia kudriavzevii; greater than 128 mg/L in [Candida] auris [1]; greater than 128 mg/L in the data set on Candida tropicalis [2]; greater than 128 mg/L with Nakaseomyces glabratus [3]; greater than 64 mg/L in the data set with Candida albicans [4]. For the same compound, the MIC (in the data set on Candida albicans [5]; in the data set on Candida tropicalis [6]; in [Candida] auris [7]; against Nakaseomyces glabratus [8]; in the data set on Candida albicans [9]) was greater than 128 mg/L in each case.

As to `CC[C@H](C)[C@H](NC(=O)[C@H](CC(=O)O)NC(=O)[C@H](Cc1ccccc1)NC(=O)[C@H](CC(C)C)NC(=O)CN)C(=O)N[C@H](C(=O)N[C@@H](CCCCN)C(=O)N[C@@]1(C)CCC/C=C\CCC[C@@](C)(C(=O)N[C@@H](Cc2ccccc2)C(N)=O)NC(=O)[C@H](CCC(=O)O)NC(=O)[C@H](C)NC(=O)[C@H]([C@@H](C)CC)NC1=O)[C@@H](C)CC` (H-GLFDIIK[S5]IAE[S5]F-NH2; staple (Z) 8-12), the MIC in the data set with Candida parapsilosis was greater than 128 mg/L; with Pichia kudriavzevii, greater than 128 mg/L; in data set [Candida] auris [1] it was greater than 128 mg/L; against Candida tropicalis [2] it was greater than 128 mg/L; against Nakaseomyces glabratus [3], greater than 128 mg/L; in the data set on Candida albicans [4], greater than 64 mg/L. In addition, the MIC (with Candida albicans [5]; in the data set on Candida tropicalis [6]; in data set [Candida] auris [7]; with Nakaseomyces glabratus [8]; in the data set with Candida albicans [9]) was greater than 128 mg/L in each case.

As for `CC[C@H](C)[C@H](NC(=O)[C@H](CCCCN)NC(=O)[C@]1(C)CCC/C=C\CCC[C@](C)(NC(=O)[C@H](CC(C)C)NC(=O)CNC(C)=O)C(=O)N[C@@H](CC(=O)O)C(=O)N[C@@H]([C@@H](C)CC)C(=O)N[C@@H]([C@@H](C)CC)C(=O)N1)C(=O)N[C@@H](C)C(=O)N[C@@H](CCC(=O)O)C(=O)N[C@@H](CO)C(=O)N[C@@H](Cc1ccccc1)C(N)=O` (Ac-GL[S5]DII[S5]KIAESF-NH2; staple (Z) 3-7), the MIC in the data set with Candida parapsilosis was greater than 128 mg/L; in the data set on Pichia kudriavzevii it was greater than 128 mg/L; in data set [Candida] auris [1] it was greater than 128 mg/L; in the data set on Candida tropicalis [2] it was greater than 128 mg/L; in the data set with Nakaseomyces glabratus [3], greater than 128 mg/L; with Candida albicans [4], greater than 64 mg/L. Further, the MIC (against Candida albicans [5]; in the data set on Candida tropicalis [6]; in data set [Candida] auris [7]; against Nakaseomyces glabratus [8]; against Candida albicans [9]) was greater than 128 mg/L each time.

As to Ac-GLFDIIKKIAESF-NH2, the MIC in the data set with Candida parapsilosis was greater than 128 mg/L; in the data set with Pichia kudriavzevii, greater than 128 mg/L; in [Candida] auris [1] it was greater than 128 mg/L; in the data set with Candida tropicalis [2], greater than 128 mg/L; against Nakaseomyces glabratus [3] it was greater than 128 mg/L; in the data set with Candida albicans [4], greater than 64 mg/L. For the same compound, the MIC (with Candida albicans [5]; in the data set with Candida tropicalis [6]; in data set [Candida] auris [7]; in the data set with Nakaseomyces glabratus [8]; with Candida albicans [9]) was greater than 128 mg/L throughout.

Take `CC[C@H](C)[C@@H]1NC(=O)[C@H]([C@@H](C)CC)NC(=O)[C@@](C)(NC(=O)[C@H](Cc2ccccc2)NC(=O)[C@H](CC(C)C)NC(=O)CN)CCC/C=C\CCC[C@@](C)(C(=O)N[C@H](C(=O)N[C@@H](C)C(=O)N[C@@H](CCC(=O)O)C(=O)N[C@@H](CO)C(=O)N[C@@H](Cc2ccccc2)C(N)=O)[C@@H](C)CC)NC(=O)[C@H](CCCCN)NC1=O` (H-GLF[S5]IIK[S5]IAESF-NH2; staple (Z) 4-8): the MIC in the data set with Candida parapsilosis is greater than 128 mg/L; against Pichia kudriavzevii it was greater than 128 mg/L; in data set [Candida] auris [1], greater than 128 mg/L; against Candida tropicalis [2] it was greater than 128 mg/L; with Nakaseomyces glabratus [3], greater than 128 mg/L; in the data set with Candida albicans [4], greater than 64 mg/L. Also, the MIC (against Candida albicans [5]; in the data set with Candida tropicalis [6]; in data set [Candida] auris [7]; against Nakaseomyces glabratus [8]; in the data set with Candida albicans [9]) was greater than 128 mg/L throughout.

For `CC(C)C[C@@H]1NC(=O)[C@H](CCCCN)NC(=O)[C@H](Cc2c[nH]c3ccccc23)NC(=O)[C@@](C)(NC(=O)[C@@H](N)CCCCN)CCC/C=C\CCC[C@@](C)(C(=O)N[C@@H](CCCCN)C(N)=O)NC1=O` (H-K[S5]WKL[S5]K-NH2; staple (Z) 2-6), the HC50 at 0.5 h in data set [10] was less than 1000 nM.

Turning to `CC[C@H](C)[C@H](NC(=O)[C@H](CC(=O)O)NC(=O)[C@H](Cc1ccccc1)NC(=O)[C@H](CC(C)C)NC(=O)CN)C(=O)N[C@@]1(C)CCC/C=C\CCC[C@@](C)(C(=O)N[C@@H](CCC(=O)O)C(=O)N[C@@H](CO)C(=O)N[C@@H](Cc2ccccc2)C(N)=O)NC(=O)[C@H]([C@@H](C)CC)NC(=O)[C@H](CCCCN)NC(=O)[C@H](CCCCN)NC1=O` (H-GLFDI[S5]KKI[S5]ESF-NH2; staple (Z) 6-10), the MIC in the data set on Candida parapsilosis is greater than 128 mg/L; against Pichia kudriavzevii, greater than 128 mg/L; in [Candida] auris [1], greater than 128 mg/L; in the data set on Candida tropicalis [2], greater than 128 mg/L; in the data set on Nakaseomyces glabratus [3], greater than 128 mg/L; with Candida albicans [4] it was greater than 64 mg/L. Also, the minimum inhibitory concentration (MIC) (with Candida albicans [5]; in the data set on Candida tropicalis [6]; in [Candida] auris [7]; in the data set on Nakaseomyces glabratus [8]; in the data set on Candida albicans [9]) was greater than 128 mg/L each time.

Broadly, the MIC is the smallest concentration in the dilution series that meets the test's criterion for growth inhibition. Read a low MIC as a more susceptible organism. The HC50 is the concentration giving 50% haemolysis. High values mean less damage to red cells, low ones more damage to red cells.
